The target in one assay is T1, EGFR T790M L858R (Homo sapiens, UniProt P00533, L858R/T790M).
T1 construct: purchased Life Technologies PV4879
As to the kind of experiment: EGFR T790M L858R biochemical assay (Caliper mobility shift). To be noted: 5 μM ATP; apparent Ki (Morrison fit) converted by Cheng-Prusoff, Km of ATP 1.3 μM. The protocol:
The exemplified compounds described herein were tested according to the assay below. The enzyme data reported in Tables 4-5 is generally a representative of multiple experiments.
Reactions proceed for 30 minutes at room temperature (22° C.) and are terminated with 80 mM 2,2′,2″,2′″-(ethane-1,2-diyldinitrilo)tetraacetic acid (EDTA). Product is detected using the Caliper mobility shift detection method where product and substrate are electrophoretically separated and measured.

Assay [1] has as its target T2, phosphor-EGFR in H1975(L585R/T790M) mutant EGFR expressing cells (Homo sapiens, UniProt P00533, L858R/T790M).
T2 construct: host or cells: NCI-H1975
In words: H1975 pEGFR MSD cellular assay. It is filed as cell-based. To be noted: NCI-H1975 cells, serum starved, 1 hour compound incubation, pEGFR Tyr1068 MSD; read-out: HI975 pEGFR EC50. The protocol:
H1975 pEGFR MSD Cellular Assays
These assays are intended for determining cellular. […] (Meso Scale Discovery Catalog# N31CB-1).
NCI-H1975 (ATCC Catalog# CRL-5908) cells are maintained in medium containing RPMI 1640, 10% FBS, 4 mM L-Glutamine, 1% Penicillin-Streptomycin, and 4.5 g/L Glucose. All cell culture reagents were purchased from Invitrogen/Gibco. Cells are cultured at 37° C. at 5% CO2 and split as recommended by ATCC.
Cell Plating and Serum Starvation:
H1975 cells are harvested and plated into sterile cell culture treated 384 well plates (Greiner catalog #781091) at a density of 30,000 cells/well in 50 ul culture medium and placed in a 37° C. at 5% CO2 incubator for six hours. After six hours, culture medium is aspirated and replaced with serum-free culture medium. Cells are then incubated with the serum-free medium overnight at 37° C. and 5% CO2.
The following day, test compounds are serially diluted in dimethyl sulfoxide (DMSO) and added to cells in serum free medium (final DMSO concentration 0.5%). Assay plates are then incubated for 1 hour at 37° C. and 5% CO2. Following 1 hour of compound incubation cells are then lysed and processed as per the MSD pEGFR assay kit protocol. Cell lysates are added to assay plates pre-coated with antibodies against phosphorylated EGFR. Phosphorylated EGFR in samples are allowed to bind to the capture antibodies overnight at 4° C. The detection antibody (anti-total EGFR, labeled with an electrochemiluminescent SULFO-TAG) is added to the bound lysate and incubated for 1 hour at room temperature. The MSD Read Buffer is added such that when a voltage is applied to the plate electrodes, the labels bound to the electrode surface emit light. The MSD Sector Instrument measures the intensity of the light, and quantitatively measures the amount of phosphorylated-EGFR in the sample. Percent inhibition of EGFR phosphorylation by varying concentrations of test compounds is calculated relative to untreated controls. EC50 values are calculated using the 4 parameter logistic nonlinear regression dose-response model.

The subject of assay [2] is H1975 (EGFR T790M/L858R) cell proliferation. As to the kind of experiment: H1975 proliferation assay (Cell Titer-Glo). It is filed as cell-based. To be noted: NCI-H1975 cells, 72 hour incubation. Here is the method: H1975 Proliferation Assays
All cell culture reagents were purchased from Invitrogen/Gibco. Cells are cultured at 37° C. at 5% CO2 and split as recommended by ATCC.
Background: ATP-based viability assays read luminescence as a measure of living cells.

Setting [3] is: Homo sapiens, NCI-H1975, 72 h, read-out: H1975 antiproliferative EC50.

Where two headings read alike, the source gives them in different places.

18 compounds from patent publication US9951064B2, “Azaindazole compounds as inhibitors of T790M containing EGFR mutants” (Genentech, Inc., priority 2013, dated 2018) can be followed below.

T2 sequence (P00533 25-1210 T790M/L858R): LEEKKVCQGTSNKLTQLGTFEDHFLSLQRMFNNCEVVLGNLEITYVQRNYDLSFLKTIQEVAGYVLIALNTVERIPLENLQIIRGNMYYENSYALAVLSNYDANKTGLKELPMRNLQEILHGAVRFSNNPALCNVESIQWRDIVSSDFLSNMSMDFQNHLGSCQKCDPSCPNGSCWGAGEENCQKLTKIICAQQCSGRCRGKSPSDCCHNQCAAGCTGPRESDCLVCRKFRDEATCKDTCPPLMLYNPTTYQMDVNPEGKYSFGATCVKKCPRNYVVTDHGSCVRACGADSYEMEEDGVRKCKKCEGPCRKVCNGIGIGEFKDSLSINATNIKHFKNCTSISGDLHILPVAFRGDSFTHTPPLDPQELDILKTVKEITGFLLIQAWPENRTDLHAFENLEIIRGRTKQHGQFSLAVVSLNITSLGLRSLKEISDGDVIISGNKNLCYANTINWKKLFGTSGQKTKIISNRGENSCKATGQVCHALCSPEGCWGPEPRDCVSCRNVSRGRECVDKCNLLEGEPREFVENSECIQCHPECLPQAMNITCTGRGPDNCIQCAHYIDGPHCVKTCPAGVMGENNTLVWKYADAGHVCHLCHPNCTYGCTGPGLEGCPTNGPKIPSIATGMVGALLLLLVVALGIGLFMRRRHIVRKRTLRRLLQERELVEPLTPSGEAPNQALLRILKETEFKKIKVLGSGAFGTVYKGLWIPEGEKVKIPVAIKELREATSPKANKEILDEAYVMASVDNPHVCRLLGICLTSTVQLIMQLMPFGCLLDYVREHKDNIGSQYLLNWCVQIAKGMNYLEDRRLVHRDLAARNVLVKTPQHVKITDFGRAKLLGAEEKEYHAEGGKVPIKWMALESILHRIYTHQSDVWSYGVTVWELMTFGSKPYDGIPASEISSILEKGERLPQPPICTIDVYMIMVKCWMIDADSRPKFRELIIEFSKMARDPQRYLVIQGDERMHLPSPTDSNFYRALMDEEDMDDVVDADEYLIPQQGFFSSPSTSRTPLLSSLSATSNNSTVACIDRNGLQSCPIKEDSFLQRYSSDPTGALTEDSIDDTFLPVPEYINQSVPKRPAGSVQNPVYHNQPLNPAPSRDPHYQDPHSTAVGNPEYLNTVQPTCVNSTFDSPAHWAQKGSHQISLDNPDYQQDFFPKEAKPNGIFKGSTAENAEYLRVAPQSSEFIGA
T1 sequence (P00533 25-1210 T790M/L858R): as above

By EC50 is commonly meant the concentration needed to bring the measured effect to its halfway point. For the compound `CCC(C)n1nc(N2CC(C(C)(C)O)C2)c2cnc(Nc3ccnc(N4CCC(O)C(C)(C)C4)n3)cc21` (mixture of isomers) [Example 12, 1-(4-((1-(sec-Butyl)-3-(3-(2-hydroxypropan-2-yl)azetidin-1-yl)-1H-pyrazolo[4,3-c]pyridin-6-yl)amino)pyrimidin-2-yl)-3,3-dimethylpiperidin-4-ol], the Ki on EGFR T790M L858R is 0.0022 µM. Moreover, the EC50 in assay [1] was found to be 0.0302 µM; in assay [2] (setting [3]), 0.288 µM.

Take `CCC(C)n1nc(N2CC3(COC3)C2)c2cnc(Nc3ccnc(-c4cnn(S(=O)(=O)C5CC5)c4)n3)cc21` (racemic) [Example 14, 1-(sec-Butyl)-N-(2-(1-(cyclopropylsulfonyl)-1H-pyrazol-4-yl)pyrimidin-4-yl)-3-(2-oxa-6-azaspiro[3.3]heptan-6-yl)-1H-pyrazolo[4,3-c]pyridin-6-amine]: on EGFR T790M L858R, the Ki turned out to be 0.001 µM. In addition, the half-maximal effective concentration (EC50) in assay [1] was 0.0193 µM; in assay [2] (setting [3]), 0.216 µM.

For the compound `CC(C)n1nc(N2CCOCC2)c2cnc(Nc3ccnc(N4CCC(O)C(F)C4)n3)cc21` (racemic) [Example 20, (±)-cis-3-Fluoro-1-[4-(1-isopropyl-3-morpholin-4-yl-1H-pyrazolo[4,3-c]pyridin-6-ylamino)pyrimidin-2-yl]piperidin-4-ol], the Ki on EGFR T790M L858R worked out at 0.0025 µM. Besides, the EC50 in assay [1] was 0.135 µM; in assay [2] (setting [3]), 1.07 µM.

Take `CCC(C)n1nc(N2CC(C(C)(C)O)C2)c2cnc(Nc3ccnc(-c4cnn(S(=O)(=O)C5CC5)c4)n3)cc21` (single isomer, unassigned) [Example 13, enantiomer 1, 2-(1-(1-(sec-Butyl)-6-((2-(1-(cyclopropylsulfonyl)-1H-pyrazol-4-yl)pyrimidin-4-yl)amino)-1H-pyrazolo[4,3-c]pyridin-3-yl)azetidin-3-yl)propan-2-ol]: in assay [2] (setting [3]), the half-maximal effective concentration (EC50) amounted to 0.361 µM.

`CCC(C)n1nc(N2CC(C(C)(C)O)C2)c2cnc(Nc3ccnc(-c4cnn(S(=O)(=O)C5CC5)c4)n3)cc21` (single isomer, unassigned) [Example 13, enantiomer 2, 2-(1-(1-(sec-Butyl)-6-((2-(1-(cyclopropylsulfonyl)-1H-pyrazol-4-yl)pyrimidin-4-yl)amino)-1H-pyrazolo[4,3-c]pyridin-3-yl)azetidin-3-yl)propan-2-ol]: the EC50 in assay [2] (listed as 13, enantiomer 2, read-out: H1975 antiproliferative EC50) was 0.633 µM.

Take `CCC(C)n1nc(N2CCOCC2)c2cnc(Nc3ccnc(-c4cnn(S(=O)(=O)C5CC5)c4)n3)cc21` (single isomer, unassigned) [Example 27, enantiomer 1, 1-(sec-Butyl)-N-(2-(1-(cyclopropylsulfonyl)-1H-pyrazol-4-yl)pyrimidin-4-yl)-3-morpholino-1H-pyrazolo[4,3-c]pyridin-6-amine]: the concentration giving a half-maximal response (EC50) in assay [2] (setting [3]) came out at 0.61 µM.

Take `CCC(C)n1nc(N2CCOCC2)c2cnc(Nc3ccnc(-c4cnn(S(=O)(=O)C5CC5)c4)n3)cc21` (single isomer, unassigned) [Example 27, enantiomer 2, 1-(sec-Butyl)-N-(2-(1-(cyclopropylsulfonyl)-1H-pyrazol-4-yl)pyrimidin-4-yl)-3-morpholino-1H-pyrazolo[4,3-c]pyridin-6-amine]: the EC50 in assay [2] (listed as 27, enantiomer 2, read-out: H1975 antiproliferative EC50) was 1.14 µM.

Regarding `CC(C)n1nc(F)c2cnc(Nc3ccnc(-c4cnn(S(=O)(=O)C5CC5)c4)n3)cc21` [Example 7, N-(2-(1-(Cyclopropylsulfonyl)-1H-pyrazol-4-yl)pyrimidin-4-yl)-3-fluoro-1-isopropyl-1H-pyrazolo[4,3-c]pyridin-6-amine], the Ki at EGFR T790M L858R amounted to 0.298 µM. Besides, in assay [2] (setting [3]), the EC50 is above 10 µM.

Consider `COC1CCN(c2nccc(Nc3cc4c(cn3)c(C(N)=O)nn4C(C)C)n2)CC1` [Example 11, 1-Isopropyl-6-((2-(4-methoxypiperidin-1-yl)pyrimidin-4-yl)amino)-1H-pyrazolo[4,3-c]pyridine-3-carboxamide], for which the Ki on EGFR T790M L858R came to 0.0291 µM.

Consider `CCC(C)n1nc(N2CC(N)C(F)(F)C2)c2cnc(Nc3ccnc(N4CCC(C)(O)CC4)n3)cc21` (stereo not drawn) [Example 184, 1-(4-(3-(4-Amino-3,3-difluoropyrrolidin-1-yl)-1-sec-butyl-1H-pyrazolo[4,3-c]pyridin-6-ylamino)pyrimidin-2-yl)-4-methylpiperidin-4-ol], for which the EC50 in assay [1] is 0.0949 µM; in assay [2] (setting [3]) it was 0.761 µM.

In the case of `CCC(C)n1nc(N2CC[C@H](O)C2=O)c2cnc(Nc3ccnc(-c4cnn(S(=O)(=O)C5CC5)c4)n3)cc21` (stereo partly drawn) [Example 185, (3S)-(1-sec-Butyl-6-(2-(1-(cyclopropylsulfonyl)-1H-pyrazol-4-yl)pyrimidin-4-ylamino)-1H-pyrazolo[4,3-c]pyridin-3-yl)-3-hydroxypyrrolidin-2-one], the results for the EC50 in assay [1] and in assay [2] (setting [3]) were 0.0856 µM and 0.696 µM, respectively.

Turning to `CCC(C)n1nc(N2CC[C@@H](O)C2=O)c2cnc(Nc3ccnc(-c4cnn(S(=O)(=O)C5CC5)c4)n3)cc21` (stereo partly drawn) [Example 186, (3R)-1-(1-sec-Butyl-6-(2-(1-(cyclopropylsulfonyl)-1H-pyrazol-4-yl)pyrimidin-4-ylamino)-1H-pyrazolo[4,3-c]pyridin-3-yl)-3-hydroxypyrrolidin-2-one], the results for the EC50 in assay [1] and in assay [2] (setting [3]) were 0.0749 µM and 0.586 µM, respectively.

For the compound `CCC(C)n1nc(N2CCN(C(=O)[C@H](C)O)CC2)c2cnc(Nc3ccnc(-c4cnn(S(=O)(=O)C5CC5)c4)n3)cc21` (stereo partly drawn) [Example 187, (2S)-1-(4-(1-sec-Butyl-6-(2-(1-(cyclopropylsulfonyl)-1H-pyrazol-4-yl)pyrimidin-4-ylamino)-1H-pyrazolo[4,3-c]pyridin-3-yl)piperazin-1-yl)-2-hydroxypropan-1-one], the EC50 in assay [1] came out at 0.0755 µM; in assay [2] (setting [3]), 0.813 µM.

Consider `CCC(C)n1nc(N2CCN(C(=O)[C@@H](C)O)CC2)c2cnc(Nc3ccnc(-c4cnn(S(=O)(=O)C5CC5)c4)n3)cc21` (stereo partly drawn) [Example 188, (2R)-1-(4-(1-sec-Butyl-6-(2-(1-(cyclopropylsulfonyl)-1H-pyrazol-4-yl)pyrimidin-4-ylamino)-1H-pyrazolo[4,3-c]pyridin-3-yl)piperazin-1-yl)-2-hydroxypropan-1-one], for which the concentration for a half-maximal effect (EC50) in assay [1] was 0.0643 µM; in assay [2] (setting [3]), 1.09 µM.

Turning to `CCC(C)n1nc(N2C[C@@H](CO)NC2=O)c2cnc(Nc3ccnc(-c4cnn(S(=O)(=O)C5CC5)c4)n3)cc21` (stereo partly drawn) [Example 189, (4S)-1-(1-sec-Butyl-6-(2-(1-(cyclopropylsulfonyl)-1H-pyrazol-4-yl)pyrimidin-4-ylamino)-1H-pyrazolo[4,3-c]pyridin-3-yl)-4-(hydroxymethyl)imidazolidin-2-one], the results for the EC50 in assay [1] and in assay [2] (setting [3]) were 0.474 µM and 5.59 µM, respectively.

Regarding `CCC(C)n1nc(N2CC(C(C)O)C2)c2cnc(Nc3ccnc(-c4cnn(S(=O)(=O)C5CC5)c4)n3)cc21` (stereo not drawn) [Example 190, 1-(1-(1-sec-Butyl-6-(2-(1-(cyclopropylsulfonyl)-1H-pyrazol-4-yl)pyrimidin-4-ylamino)-1H-pyrazolo[4,3-c]pyridin-3-yl)azetidin-3-yl)ethanol], the results for the EC50 in assay [1] and in assay [2] (setting [3]) were 0.0446 µM and 0.537 µM, respectively.

As to `CC(C)n1nc(N2C[C@@H](O)[C@@H](O)C2)c2cnc(Nc3ccnc(N4CCC(C)(O)CC4)n3)cc21` [Example 191, (±)-1-(6-(2-(4-Hydroxy-4-methylpiperidin-1-yl)pyrimidin-4-ylamino)-1-isopropyl-1H-pyrazolo[4,3-c]pyridin-3-yl)pyrrolidine-cis-3,4-diol], the 50% effective concentration (EC50) in assay [1] was 0.531 µM; in assay [2] (setting [3]), above 10 µM.

As to `CC(C)n1nc(N2C[C@H](O)[C@@H](O)C2)c2cnc(Nc3ccnc(N4CCC(C)(O)CC4)n3)cc21` [Example 192, (3S,4S)-1-(6-(2-(4-Hydroxy-4-methylpiperidin-1-yl)pyrimidin-4-ylamino)-1-isopropyl-1H-pyrazolo[4,3-c]pyridin-3-yl)pyrrolidine-3,4-diol], in assay [2] (setting [3]), the EC50 was above 10 µM.
